Test results: patent publication US12570684B2 (UNIVERSITY OF TENNESSEE RESEARCH FOUNDATION, priority 2020, dated 2026)
Several values for one entry are separate records, joined by “and”; a condition that tells them apart may be missing. Equal entries are not always repeated. Where two headings read alike, the source gives them in different places.

Assays:
[1] = target: MraY (Hydrogenivirga sp.) (Hydrogenivirga sp. 128-5-R1-1, UniProt Z9Y2G8N0L0); experiment: MraY assay; format: biochemical
Experimental: Expression and purification of HyMraY. The gene mraY of Hydrogenivirga spp. 128-5-R1-1 was cloned with a N-terminal His6 tag into a pET22b vector. […] The proteins were purified using a nickel, cation exchange, and size exclusion chromatography.
MraY assay. MraY assay substrates, Park's nucleotide-N^ε-C6-dansylthiourea, neryl phosphate, were chemically synthesized according to the reported procedures.^7 Park's nucleotide-N^ε-C6-dansylthiourea (2 mM stock solution, 1.88 jiL), MgCl2 (0.5 M, 5 jiL), KCl (2 M, 5 jiL), Triton X-100 (0.5%, 5.63 jiL), Tris buffer (pH 8.0, 50 mM), neryl phosphate (0.1 M, 2.25 jiL), and inhibitor molecule (0-50 .ig/mL in Tris buffer) were placed in a 1.5 mL Eppendorf tube. […] (26° C.) and quenched with CHCl3 (100 jiL). […] The aqueous phase was assayed via reverse-phase HPLC.

[2] = target: T1, DPAGT1 (Human) (Homo sapiens, UniProt Q9H3H5); experiment: DPAGT1 assay; format: biochemical
T1 construct: made in house; host or cells: Expi293 cells (suspension)
T1 sequence (Q9H3H5 1-408): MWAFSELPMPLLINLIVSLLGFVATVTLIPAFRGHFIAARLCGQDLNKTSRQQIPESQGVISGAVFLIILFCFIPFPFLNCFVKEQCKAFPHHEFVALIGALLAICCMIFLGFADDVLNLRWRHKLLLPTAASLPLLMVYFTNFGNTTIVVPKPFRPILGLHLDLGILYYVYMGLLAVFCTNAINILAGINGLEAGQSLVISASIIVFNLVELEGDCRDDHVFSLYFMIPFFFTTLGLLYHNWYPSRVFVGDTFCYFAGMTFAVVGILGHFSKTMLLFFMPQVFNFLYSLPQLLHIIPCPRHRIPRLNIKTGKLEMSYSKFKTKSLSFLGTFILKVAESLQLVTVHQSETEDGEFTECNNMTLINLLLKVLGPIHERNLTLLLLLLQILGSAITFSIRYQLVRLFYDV
Experimental: DPAGT1 expression and purification. DPAGT1 was expressed in suspended Expi293 cells for 36 h. The cells were lysed by drawing through a 26 g needle (10 times) and membrane protein was extracted using buffer containing 1% decyl f3-D-maltopyranoside detergent. DPAGT1 was purified using HA-agarose resin and a superdex 200 size exclusion column.

[3] = tested on: DLD-1; experiment: MTT cytotoxicity assay; format: cell-based
Experimental: (§1) Cell lines. The human primary PDAC cell lines PANC-1 (ATCC CRL 1469); Capan-2 (ATCC HTB-80) and metastatic PDAC cell lines Capan-1 (ATCC HTB-79), AsPC-1 (ATCC CRL-1682), L1210 (ATCC CCL-219), KB (ATCC CCL-17), HeLa, SiHa (ATCC HTB-35), HCT-116 (ATCC CCL-247), DLD-1 (ATCC CCL221), hTERT-HPNE (ATCC CRL-4023), Vero (ATCC CCL-81) were purchased from the ATCC. The cell lines were cultured and maintained in the media as recommended by the supplier. The cell lines were regularly tested for mycoplasma contamination and authenticated. In addition to ATCC cell lines, Dr. Glazer's lab generated patient-derived PDAC cell line, PD002. PD002 Cells were maintained and cultured in DMEM medium supplemented with 20% FBS and 100 IU/mL penicillin and incubated at 37° C. with 5% CO2.
(§2) MTT cytotoxicity assay. To study the effect of treatment with DPAGT1 inhibitors on the growth and proliferation of cells, a fixed number of cells (5×10^4 cells/well, 196 μL) were plated in a 96 well plate. Into each well 5 μL of drug concentration was added. After 72 h of incubation with drugs at 37° C., 5% CO2, 10 μL of MTT solution (5 mg/mL in PBS) was added and incubated another 3 h at 37° C., 5% CO2. The medium was removed, and DMSO (200 μL/well) was added. Viability was assessed on the basis of cellular conversion of MTT into a purple formazan product. The absorbance of the colored formazan product was measured at 570 nm by BioTek Synergy HT Spectrophotometer.

[4] = tested on: HCT-116; experiment: MTT cytotoxicity assay; format: cell-based
Experimental: as §1, §2

[5] = tested on: HPNE; experiment: MTT cytotoxicity assay; format: cell-based; conditions: for IC50: MTT, 72 h
Experimental: as §1, §2

[6] = tested on: KB; experiment: MTT cytotoxicity assay; format: cell-based; conditions: 72 h
Experimental: as §1, §2

[7] = tested on: L1210; experiment: MTT cytotoxicity assay; format: cell-based; conditions: for IC50: MTT, 72 h
Experimental: as §1, §2

[8] = tested on: PD002; experiment: MTT cytotoxicity assay; format: cell-based; conditions: MTT, 72 h
Experimental: as §1, §2

[9] = tested on: SiHa; experiment: MTT cytotoxicity assay; format: cell-based; conditions: 72 h
Experimental: as §1, §2

[10] = tested on: Vero; experiment: MTT cytotoxicity assay; format: cell-based; conditions: for IC50: MTT, 72 h
Experimental: as §1, §2

[11] = tested on: AsPC-1; experiment: MTT cytotoxicity assay; format: cell-based, human
Experimental: as §1, §2

[12] = tested on: Capan-2; experiment: MTT cytotoxicity assay; format: cell-based, human
Experimental: as §1, §2

[13] = tested on: PANC-1; experiment: MTT cytotoxicity assay; format: cell-based, human
Experimental: as §1, §2

[14] = tested on: cell lines in Table 2; experiment: MTT assays, summary over the cell lines in Table 2; format: cell-based
Experimental: as §1, §2

[15] = tested on: Myocobacterium tuberculosis H37Rv, Mycobacterium avium 2285, Mycobacterium smegmatis (ATCC607); experiment: Antimycobacterial activity (MIC); format: cell-based, Mycobacterium spp.; conditions: at 50 μg/mL
[16] = target: WecA (E. coli) (Escherichia coli, UniProt P0AC78); experiment: WecA assay
Sequence of WecA (E. coli) (P0AC78 whole entry): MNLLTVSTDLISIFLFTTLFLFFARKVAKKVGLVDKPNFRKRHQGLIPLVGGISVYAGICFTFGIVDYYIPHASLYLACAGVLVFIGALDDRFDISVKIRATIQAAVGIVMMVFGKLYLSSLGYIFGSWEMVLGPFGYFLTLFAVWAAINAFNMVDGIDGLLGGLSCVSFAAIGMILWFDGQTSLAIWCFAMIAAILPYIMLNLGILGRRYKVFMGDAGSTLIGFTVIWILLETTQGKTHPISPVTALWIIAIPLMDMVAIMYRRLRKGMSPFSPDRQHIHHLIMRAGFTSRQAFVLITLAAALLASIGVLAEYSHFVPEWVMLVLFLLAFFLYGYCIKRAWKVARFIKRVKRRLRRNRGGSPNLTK
Experimental: Preparation of membrane fraction P-60 containing WecA. E. coli B21 wecA strain were harvested by centrifugation (4,700 rpm) at 4° C. followed by washing with 0.9% saline solution (thrice). The washed cell pellets were washed with homogenization buffer (containing 50 mM K2HPO4, 5 mM MgCl2, 5 mM 1,4-dithio-DL-threitol, and 10% glycerol, pH=7.2) (thrice), and approximately 5 g of pellet (wet weight) was collected. The washed cell pellets were suspended in homogenization buffer and disrupted by probe sonication on ice (5 s on and 2 s off for 1 min, then cool down for 1.5 min., 5 cycles, cool down for 15 min, and then, 5 s on and 2 s off for 1 min., cool down for 1.5 min, 5 cycles). The resulting suspension was centrifuged at 4,700×g for 15 min. at 4° C. to remove unbroken cells. The lysate was centrifuged at 25,000×g for 20 min. at 4° C. The supernatant was subjected to ultracentrifugation at 60,000×g for 1 h at 4° C. The supernatant was discarded, and the membrane fraction containing WecA enzyme (P-60) was suspended in the Tris-HCl buffer (pH=7.5). Total protein concentrations were approximately 8 to 10 mg/mL. Aliquots were stored in Eppendorf tubes at −80° C.

[17] = target: T2, AglH (M. jannaschii) (Methanocaldococcus jannaschii, UniProt Q58513); experiment: AglH assay
T2 sequence (Q58513 1-301): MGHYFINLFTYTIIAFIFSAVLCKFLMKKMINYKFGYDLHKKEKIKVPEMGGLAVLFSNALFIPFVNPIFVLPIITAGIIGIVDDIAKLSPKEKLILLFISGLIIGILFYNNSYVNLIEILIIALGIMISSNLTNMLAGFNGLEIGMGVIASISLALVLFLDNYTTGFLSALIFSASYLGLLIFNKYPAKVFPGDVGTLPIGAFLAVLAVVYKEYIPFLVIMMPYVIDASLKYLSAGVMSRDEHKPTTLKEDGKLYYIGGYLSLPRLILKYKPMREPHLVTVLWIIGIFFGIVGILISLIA

[18] = target: MraY/MurX (Mycobacterium tuberculosis, UniProt P9WMW7); conditions: background; cited from earlier work
Sequence of MraY/MurX (P9WMW7 whole entry): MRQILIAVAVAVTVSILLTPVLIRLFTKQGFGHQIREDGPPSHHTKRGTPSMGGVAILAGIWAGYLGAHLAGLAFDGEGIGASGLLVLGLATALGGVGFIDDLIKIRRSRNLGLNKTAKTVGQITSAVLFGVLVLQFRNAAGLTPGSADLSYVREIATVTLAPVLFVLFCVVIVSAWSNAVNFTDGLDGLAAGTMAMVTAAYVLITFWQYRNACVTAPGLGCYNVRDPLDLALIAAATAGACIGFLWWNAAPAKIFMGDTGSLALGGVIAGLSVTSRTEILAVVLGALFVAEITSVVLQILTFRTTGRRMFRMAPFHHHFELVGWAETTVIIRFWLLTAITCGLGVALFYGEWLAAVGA

[19] = tested on: WecA; conditions: background; cited from earlier work
[20] = tested on: MraY; conditions: background; cited from earlier work
[21] = tested on: PD002; experiment: Scratch (wound healing) assay; format: cell-based; conditions: 0.2 μM, 24 h; untreated PD002 63%
Experimental: Scratch Assay. A confluent monolayer was formed in 24-well plates. The monolayer was scratched by a sterile 200 μL pipette tip and washed with PBS to remove cell debris. Complete medium with CPPB (5) (0, 0.05, 0.1, 0.2 μM) were added and scratched areas were photographed with microscope. The scratched cells were incubated at 37° C., 5% CO2. After 24 h, medium was removed and cells were stained with a 1:1 mixture of crystal violet and PBS for 5 min., washed with PBS twice, and photographed with microscope. Wound areas were measured and recovered areas were calculated.

[22] = tested on: DPAGT1; experiment: Immunofluorescent staining of DPAGT1 expression; format: cell-based
[23] = tested on: DPAGT1 gene; experiment: RT-qPCR analyses of DPAGT1 expression level; format: cell-based; conditions: PD002
[24] = tested on: DPAGT1; conditions: background; cited from earlier work
[25] = tested on: mice; conditions: IP; cited from earlier work

Sequence of MraY (Hydrogenivirga sp.) (Z9Y2G8N0L0 7-365 limits assumed): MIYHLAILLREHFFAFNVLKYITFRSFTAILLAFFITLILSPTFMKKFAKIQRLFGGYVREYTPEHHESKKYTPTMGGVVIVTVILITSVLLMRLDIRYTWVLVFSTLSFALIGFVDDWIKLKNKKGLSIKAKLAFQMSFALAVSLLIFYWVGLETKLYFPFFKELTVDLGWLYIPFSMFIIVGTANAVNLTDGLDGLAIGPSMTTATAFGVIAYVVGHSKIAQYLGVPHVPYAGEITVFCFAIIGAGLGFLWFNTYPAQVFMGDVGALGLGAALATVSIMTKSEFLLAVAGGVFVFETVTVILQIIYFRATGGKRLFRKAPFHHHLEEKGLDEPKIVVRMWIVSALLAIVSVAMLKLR

| Compound | MraY inhibitory activity (in words) [1] | DPAGT1 inhibitory activity (in words) [2] | IC50 ([3]; Homo sapiens, DLD-1, 72 h) [µM] | IC50 ([4]; Homo sapiens, HCT-116, 72 h) [µM] | IC50 ([5]; HPNE) [µM] | IC50 ([6]; Homo sapiens, KB) [µM] | IC50 ([8]; PD002) [µM] | IC50 ([9]; Homo sapiens, SiHa) [µM] | IC50 ([10]; Chlorocebus sabaeus, Vero) [µM] | IC50 ([11]; Homo sapiens, ASPC1, 72 h) [µM] | IC50 ([12]; Homo sapiens, Capan-2, 72 h) [µM] | IC50 ([13]; Homo sapiens, PANC-1, 72 h) [µM] | WecA inhibitory activity (in words) [16] | AglH inhibitory activity (in words) [17] | IC50 [1] [µM] | IC50 [2] [µM] | IC50 ([3]; 72 h) [µM] | IC50 ([4]; 72 h) [µM] | IC50 [5] [µM] | IC50 [6] [µM] | further results |
| --- | --- | --- | --- | --- | --- | --- | --- | --- | --- | --- | --- | --- | --- | --- | --- | --- | --- | --- | --- | --- | --- |
| CO[C@@H]1[C@H](O)[C@@H]([C@@H](O[C@H]2OC(C(=O)NCc3ccc(N4CCC(Oc5ccc(OC(F)(F)F)cc5)CC4)cc3)=C[C@H](O)[C@@H]2O)C(N)=O)O[C@H]1n1ccc(=O)[nH]c1=O | did not display MraY inhibitory activity | high nM range DPAGT1 inhibitors | 35 | 25 | > 50 | 35 | 50 | 25 | > 50 | 30 | 40 | 45 | very weak | very weak | – | – | – | – | – | – | antiproliferative activity against HPNE ([5]; at 50 μM, normal pancreatic ductal cell): did not show antiproliferative activity; antiproliferative activity against L1210 ([7]; at 50 μM): did not show antiproliferative activity; antiproliferative activity against Vero ([10]; at 50 μM, normal kidney cell): did not show antiproliferative activity; IC50 ([14]; KB, SiHa, HCT-116, DLP-1, Capan-2, PANC-1, AsPC-1, PD002, MTT assays, read-out: IC50 range, growth inhibition of solid cancer cell lines): 15 to 40 µM; growth inhibitory activity against Mycobacterium spp. [15]: did not show growth inhibitory activity |
| CO[C@H]1[C@@H](OC)[C@H](n2ccc(=O)[nH]c2=O)O[C@@H]1[C@@H](O[C@H]1OC(C(=O)N[C@H]2CCCCNC2=O)=C[C@H](O)[C@@H]1O)C(N)=O [O-Methyl capuramycin] | – | – | – | – | – | – | – | – | – | – | – | – | – | – | > 50 | 4.5 | > 50 | > 50 | > 50 | > 50 | IC50 ([2]; listed as OM-CAP): 3.5 µM; IC50 [7]: > 50 µM; IC50 [8]: > 50 µM; IC50 [9]: > 50 µM; IC50 [10]: > 50 µM; IC50 ([11]; 72 h): > 50 µM; IC50 ([12]; 72 h): > 50 µM; IC50 ([13]; 72 h): > 50 µM; MraY/MurX inhibitory activity (in words) [18]: does not exhibit MraY/MurX inhibitory activity; IC50 [19]: ~0.06 µM; IC50 ([16]; read-out: IC50 WecA (E. coli)): 0.06 µM |
| CO[C@H]1[C@@H](O)[C@H](n2ccc(=O)[nH]c2=O)O[C@@H]1[C@@H](O[C@H]1OC(C(=O)N[C@H]2CCCCNC2=O)=C[C@H](O)[C@@H]1O)C(N)=O [Capuramycin] | selective MraY inhibitor | does not display inhibitory activity | > 50 | > 50 | > 50 | > 50 | > 50 | > 50 | > 50 | > 50 | > 50 | > 50 | does not display inhibitory activity | does not display inhibitory activity | 0.13 | – | – | – | – | – | IC50 ([7]; Mus musculus, L1210): > 50 µM; IC50 [20]: 0.15 µM; IC50 [16]: > 50 µM; IC50 [17]: > 50 µM |
| Tunicamycin | – | – | – | – | – | – | – | – | – | – | – | – | – | – | 2.9 | 1.5 | 1.25 | 0.92 | 7.5 | 2.5 | IC50 [7]: 1.7 µM; IC50 [8]: 1.5 µM; IC50 [9]: 0.92 µM; IC50 [10]: 0.78 µM; IC50 ([11]; 72 h): 0.45 µM; IC50 ([12]; 72 h): 1.5 µM; IC50 ([13]; 72 h): 1.5 µM; IC50 ([14]; all cell lines in Table 2, read-out: IC50 range, growth inhibition of all cell lines in Table 2): 0.78 to 7.5 µM and 0.45 to 7.5 µM; wound-healing rate [21]: 35%; DPAGT1 protein expression [22]: decreased; DPAGT1 gene expression [23]: decreased; IC50 [18]: 3.38 µM; IC50 [19]: 0.15 µM; IC50 [24]: 2.5 µM; LD100 [25]: 3.5 mg/kg; LDs50 [25]: 2.0 mg/kg; IC50 ([16]; read-out: IC50 WecA (E. coli)): 0.15 µM; IC50 ([17]; read-out: IC50 AglH (M. jannaschii)): 13.2 µM |
